Experimental data from patent US10745382B2 (BRISTOL-MYERS SQUIBB COMPANY, priority 2015, dated 2020).

Target: T1, PD-1/PD-L1 (Homo sapiens, UniProt Q9NZQ7)
T1 construct: made in house; host or cells: HEK293T
Test: PD-1/PD-L1 Homogenous Time-Resolved Fluorescence (HTRF) binding assay
Settings: PD-L1-His 10 nM, PD-1-Ig 20 nM; value given as range class; read-out: Range or IC50
Outline: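 dPBS + 0.1% BSA + 0.05% Tween-20 buffer; Eu-cryptate anti-Ig 1 nM final, APC anti-His 20 nM final; HTRF read. Counter-assays: PD-1-Ig/PD-L2-His 20 & 5 nM, CD80-His/PD-L1-Ig 100 & 10 nM.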

T1 sequence (Q9NZQ7 with tags, fused parts or gaps): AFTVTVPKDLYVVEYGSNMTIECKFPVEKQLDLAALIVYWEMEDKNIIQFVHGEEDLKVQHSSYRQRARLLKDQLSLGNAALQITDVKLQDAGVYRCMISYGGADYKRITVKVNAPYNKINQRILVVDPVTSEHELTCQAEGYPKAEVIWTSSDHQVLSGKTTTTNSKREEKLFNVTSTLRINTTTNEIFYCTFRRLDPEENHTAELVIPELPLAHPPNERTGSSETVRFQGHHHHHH

| SMILES | IC50 [nM] |
| --- | --- |
| C[C@](CO)(NCc1cc(Cl)c(OCc2cccc(-c3cccc(OCCCN4C[C@@H](O)[C@H](O)C4)c3Cl)c2Cl)cc1OCc1cncc(C#N)c1)C(=O)O [Example 2078, (R)-2-((5-chloro-2-((5-cyanopyridin-3-yl)methoxy)-4-((2,2′-dichloro-3′-(3-((3R,4R)-3,4-dihydroxypyrrolidin-1-yl)propoxy)-[1,1′-biphenyl]-3-yl)methoxy)benzyl)amino)-3-hydroxy-2-methylpropanoic Acid] | 0.21 to 10 |
| CNC(=O)c1cccc(-c2cccc(COc3cc(OCc4cncc(C#N)c4)c(CN4C[C@@H](O)C[C@H]4C(=O)O)cc3Cl)c2C)c1C [Example 4014, (2S,4S)-1-(5-chloro-2-((5-cyanopyridin-3-yl)methoxy)-4-((2,2′-dimethyl-3′-(methylcarbamoyl)-[1,1′-biphenyl]-3-yl)methoxy)benzyl)-4-hydroxypyrrolidine-2-carboxylic Acid] | 2010 to 10000 |
| Cc1c(COc2cc(OCc3cncc(C#N)c3)c(CN[C@](C)(CO)C(=O)O)cc2Cl)cccc1-c1cc(C#Cc2ccccc2)cc(OCCCN2CC[C@@H](O)C2)c1 [Example 3045, (R)-2-((5-chloro-2-((5-cyanopyridin-3-yl)methoxy)-4-((3′-(3-((R)-3-hydroxypyrrolidin-1-yl)propoxy)-2-methyl-5′-(phenylethynyl)-[1,1′-biphenyl]-3-yl)methoxy)benzyl)amino)-3-hydroxy-2-methylpropanoic Acid] | 2010 to 10000 |
| Cc1c(COc2cc(OCc3cncc(C#N)c3)c(CN[C@@](C)(CO)C(=O)O)cc2Cl)cccc1-c1cccc(OCCCN2CC(=O)NC(=O)C2)c1C [Example 2327, (S)-2-((5-chloro-2-((5-cyanopyridin-3-yl)methoxy)-4-((3′-(3-(3,5-dioxopiperazin-1-yl)propoxy)-2,2′-dimethyl-[1,1′-biphenyl]-3-yl)methoxy)benzyl)amino)-3-hydroxy-2-methylpropanoic Acid] | 0.21 to 10 |
| CCN(CC)C(=O)c1cccc(-c2cccc(COc3cc(OCc4cncc(C#N)c4)c(CN4C[C@H](O)C[C@H]4C(=O)O)cc3Cl)c2C)c1C [Example 4042, (2S,4R)-1-(5-chloro-2-((5-cyanopyridin-3-yl)methoxy)-4-((3′-(diethylcarbamoyl)-2,2′-dimethyl-[1,1′-biphenyl]-3-yl)methoxy)benzyl)-4-hydroxypyrrolidine-2-carboxylic Acid] | 100 to 2000 |
| Cc1c(OCCCN2CC[C@@H](O)C2)cccc1-c1cccc(COc2cc(OCC(=N)N3CC[C@@H](O)C3)c(CNC(CO)CO)cc2Cl)c1Cl [Example 2315, 2-((5-chloro-4-((2-chloro-3′-(3-((R)-3-hydroxypyrrolidin-1-yl)propoxy)-2′-methyl-[1,1′-biphenyl]-3-yl)methoxy)-2-(2-((R)-3-hydroxypyrrolidin-1-yl)-2-iminoethoxy)benzyl)amino)propane-1,3-diol] | 0.21 to 10 |
| Cc1c(COc2cc(OCc3cncc(C#N)c3)c(CNC(C)(C)C)cc2Cl)cccc1-c1cccc(OCCCN2CC[C@@H](O)C2)c1C [Example 2326, (R)-5-((2-((tert-butylamino)methyl)-4-chloro-5-((3′-(3-(3-hydroxypyrrolidin-1-yl)propoxy)-2,2′-dimethyl-[1,1′-biphenyl]-3-yl)methoxy)phenoxy)methyl)nicotinonitrile] | 0.21 to 10 |
| Cc1c(COc2cc(OCc3cncc(C#N)c3)c(CN3CCCC(CO)C3)cc2Cl)cccc1-c1cccc(OCCCN2CCCC(CO)C2)c1C (stereo not drawn) [Example 2255, 5-((4-chloro-2-((3-(hydroxymethyl)piperidin-1-yl)methyl)-5-((3′-(3-(3-(hydroxymethyl)piperidin-1-yl)propoxy)-2,2′-dimethylbiphenyl-3-yl)methoxy)phenoxy)methyl)nicotinonitrile] | 0.21 to 10 |
| Cc1c(COc2cc(OCc3cncc(C#N)c3)c(CNC(C)(CO)CO)cc2Cl)cccc1-c1cccc(OCCCN2CCC(F)(F)C2)c1C [Example 4117, 5-((4-chloro-5-((3′-(3-(3,3-difluoropyrrolidin-1-yl)propoxy)-2,2′-dimethyl-[1,1′-biphenyl]-3-yl)methoxy)-2-(((1,3-dihydroxy-2-methylpropan-2-yl)amino)methyl)phenoxy)methyl)nicotinonitrile] | 0.21 to 10 |
| Cc1c(COc2cc(OCc3cncc(C#N)c3)c(CN(C)[C@@](C)(CO)C(=O)O)c(C)c2Cl)cccc1-c1cccc(OCCCN2CC[C@@H](O)C2)c1C [Example 4100, (S)-2-((3-chloro-6-((5-cyanopyridin-3-yl)methoxy)-4-((3′-(3-((R)-3-hydroxypyrrolidin-1-yl)propoxy)-2,2′-dimethyl-[1,1′-biphenyl]-3-yl)methoxy)-2-methylbenzyl)(methyl)amino)-3-hydroxy-2-methylpropanoic Acid] | 0.21 to 10 |
| Cc1c(COc2cc(OCc3cncc(C#N)c3)c(CN3CCCC[C@H]3C(=O)O)cc2Cl)cccc1-c1cccc(OCCCN2CCOCC2CO)c1C (stereo partly drawn) [Example 3050, (2S)-1-(5-chloro-2-((5-cyanopyridin-3-yl)methoxy)-4-((3′-(3-(3-(hydroxymethyl)morpholino)propoxy)-2,2′-dimethyl-[1,1′-biphenyl]-3-yl)methoxy)benzyl)piperidine-2-carboxylic Acid] | 0.21 to 10 |
| Cc1c(COc2cc(OCc3cncc(S(C)(=O)=O)c3)c(CNC(C)(CO)CO)cc2Cl)cccc1-c1cccc(OCCCN2CC[C@@H](O)C2)c1C [Example 1533, (R)-2-((5-chloro-4-((3′-(3-(3-hydroxypyrrolidin-1-yl)propoxy)-2,2′-dimethyl-[1,1′-biphenyl]-3-yl)methoxy)-2-((5-(methylsulfonyl)pyridin-3-yl)methoxy)benzyl)amino)-2-methylpropane-1,3-diol] | 0.21 to 10 |
| Cc1c(COc2cc(OCc3cncc(C#N)c3)c(CNC(C)(CO)CO)cc2Cl)cccc1-c1cccc(OCCCNC[C@H](O)CO)c1Cl [Example 2097, (S)-5-((4-chloro-5-((2′-chloro-3′-(3-((2,3-dihydroxypropyl)amino)propoxy)-2-methyl-[1,1′-biphenyl]-3-yl)methoxy)-2-(((1,3-dihydroxy-2-methylpropan-2-yl)amino)methyl)phenoxy)methyl)nicotinonitrile] | 0.21 to 10 |
| Cc1c(COc2cc(OCc3cncc(C#N)c3)c(CN3CCOC[C@H]3C(=O)O)cc2Cl)cccc1-c1cccc(C(=O)N2CCOCC2)c1C [Example 4054, (S)-4-(5-chloro-2-((5-cyanopyridin-3-yl)methoxy)-4-((2,2′-dimethyl-3′-(morpholine-4-carbonyl)-[1,1′-biphenyl]-3-yl)methoxy)benzyl)morpholine-3-carboxylic Acid] | 100 to 2000 |
| CCNC(=O)c1cccc(-c2cccc(COc3cc(OCc4cncc(C#N)c4)c(CNC(CO)CO)cc3Cl)c2C)c1C [Example 4009, 3′-((2-chloro-5-((5-cyanopyridin-3-yl)methoxy)-4-(((1,3-dihydroxypropan-2-yl)amino)methyl)phenoxy)methyl)-N-ethyl-2,2′-dimethyl-[1,1′-biphenyl]-3-carboxamide] | 10 to 100 |
| Cc1c(COc2cc(OCc3cncc(C#N)c3)c(CN(C)[C@@H](CO)C(=O)O)cc2Cl)cccc1-c1cccc(OCCCN2CC[C@@H](O)C2)c1C [Example 4136, N-(5-chloro-2-((5-cyanopyridin-3-yl)methoxy)-4-((3′-(3-((R)-3-hydroxypyrrolidin-1-yl)propoxy)-2,2′-dimethyl-[1,1′-biphenyl]-3-yl)methoxy)benzyl)-N-methyl-L-serine] | 0.21 to 10 |
| Cc1c(COc2cc(OCCCN3CC[C@@H](O)C3)c(CN[C@](C)(CO)C(=O)O)cc2Cl)cccc1-c1cccc(OCCCN2CC[C@@H](O)C2)c1C [Example 1531, (R)-2-((5-chloro-2-(3-((R)-3-hydroxypyrrolidin-1-yl)propoxy)-4-((3′-(3-((R)-3-hydroxypyrrolidin-1-yl)propoxy)-2,2′-dimethyl-[1,1′-biphenyl]-3-yl)methoxy)benzyl)amino)-3-hydroxy-2-methylpropanoic Acid] | 0.21 to 10 |
| Cc1c(COc2cc(OCc3cncc(S(C)(=O)=O)c3)c(CN[C@@](C)(CO)C(=O)O)cc2Cl)cccc1-c1cccc(OCCCN2CCC(O)(C(=O)O)CC2)c1C [Example 1041, (S)-1-(3-((3′-((4-(((2-carboxy-1-hydroxypropan-2-yl)amino)methyl)-2-chloro-5-((5-(methylsulfonyl)pyridin-3-yl)methoxy)phenoxy)methyl)-2,2′-dimethyl-[1,1′-biphenyl]-3-yl)oxy)propyl)-4-hydroxypiperidine-4-carboxylic Acid] | 0.21 to 10 |
| Cc1c(COc2cc(OCc3cncc(C(N)=O)c3)c(CN[C@H](CO)C(=O)O)cc2Cl)cccc1-c1cccc(OCCCN2CCC(O)(C(=O)O)CC2)c1C [Example 1035, (R)-1-(3-((3′-((5-((5-carbamoylpyridin-3-yl)methoxy)-4-(((1-carboxy-2-hydroxyethyl)amino)methyl)-2-chlorophenoxy)methyl)-2,2′-dimethyl-[1,1′-biphenyl]-3-yl)oxy)propyl)-4-hydroxypiperidine-4-carboxylic Acid] | 0.21 to 10 |
| CCOC(=O)C1(CO)CCN(CCCOc2cccc(-c3cccc(COc4cc(OCc5cncc(C#N)c5)c(CNC(C)(CO)CO)cc4Cl)c3C)c2Cl)C1 (stereo not drawn) [Example 1117, ethyl 1-(3-((2-chloro-3′-((2-chloro-5-((5-cyanopyridin-3-yl)methoxy)-4-(((1,3-dihydroxy-2-methylpropan-2-yl)amino)methyl)phenoxy)methyl)-2′-methyl-[1,1′-biphenyl]-3-yl)oxy)propyl)-3-(hydroxymethyl)pyrrolidine-3-carboxylate] | 0.21 to 10 |
| CC(CO)(CO)NCc1cc(Cl)c(OCc2cccc(-c3cccc(OCCCN4CC[C@@H](O)C4)c3Cl)c2Cl)cc1OCc1cc(Cl)ccc1Cl [Example 2112, (R)-2-((5-chloro-4-((2,2′-dichloro-3′-(3-(3-hydroxypyrrolidin-1-yl)propoxy)-[1,1′-biphenyl]-3-yl)methoxy)-2-((2,5-dichlorobenzyl)oxy)benzyl)amino)-2-methylpropane-1,3-diol] | 0.21 to 10 |
